Source: patent US6534447B1, “Herbicidal pyridine compounds” (BASF Aktiengesellschaft, priority 1999, dated 2003)

Tests used:
Assay type in all cases: in vivo
[1] = test system: Echinochloa grus galli (ECHCG, barnyard grass); test: Pre-emergence herbicidal evaluation; conditions: 3 weeks after treatment
From the text: (§1) The pre-emergence herbicidal activity of the compounds of the present invention is exemplified by the following test in which the seeds of a variety of monocotyledonous and dicotyledonous plants are seperately mixed with potting soil and planted on top of approximately one inch of soil in separate post. After planting, the pots are sprayed with the selected aqueous acetone solution. containing test compound in sufficient quantity to provide the equivalent of about 0.025 to 0.4 kg per hectare of test compound per pot. The treated pots are then placed on greenhouse benches, watered and cared for in accordance with conventional greenhouse procedures. From 3 weeks after treatment, the tests are terminated and each pot is examined and rated according to the rating system set forth below. [table] [table]

[2] = test system: Alopecurus myosuroides (ALOMY, black grass); test: Pre-emergence herbicidal evaluation; conditions: 3 weeks after treatment
From the text: as §1

[3] = test system: Galium aparine (GALAP, cleaver); test: Pre-emergence herbicidal evaluation; conditions: 3 weeks after treatment
From the text: as §1

[4] = test system: Stellaria media (STEME, chickweed); test: Pre-emergence herbicidal evaluation; conditions: 3 weeks after treatment
From the text: as §1

[5] = test system: Abutilon theophrasti (ABUTH, velvetleaf); test: Pre-emergence herbicidal evaluation; conditions: 3 weeks after treatment
From the text: as §1

[6] = test system: Ipomoea hederacea (IPOHE, morning glory); test: Pre-emergence herbicidal evaluation; conditions: 3 weeks after treatment
From the text: as §1

[7] = test system: Matricaria inodora (MATIN, mayweed); test: Pre-emergence herbicidal evaluation; conditions: 3 weeks after treatment
From the text: as §1

[8] = test system: Setaria viridis (SETVI, green foxtail); test: Pre-emergence herbicidal evaluation; conditions: 3 weeks after treatment
From the text: as §1

[9] = test system: Echinochloa grus galli (ECHCG, barnyard grass); test: Post-emergence herbicidal evaluation; conditions: 3 weeks after treatment
Experimental: (§2) These acetone solutions are diluted with water and the resulting formulations applied at dosage levels equivalent of about 0.025 to 0.4 kg per hectare of test compound per pot. After spraying the plants are placed on greenhouse benches and are cared for in the usual manner, commensurate with conventional greenhouse practices. From 3 weeks after treatment, the seedling plants are examined and rated according to the rating system provided above. A rating 0 indicates growth as untreated control, a rating 9 indicates death.

[10] = test system: Alopecurus myosuroides (ALOMY, black grass); test: Post-emergence herbicidal evaluation; conditions: 3 weeks after treatment
Experimental: as §2

[11] = test system: Galium aparine (GALAP, cleaver); test: Post-emergence herbicidal evaluation; conditions: 3 weeks after treatment
Experimental: as §2

[12] = test system: Stellaria media (STEME, chickweed); test: Post-emergence herbicidal evaluation; conditions: 3 weeks after treatment
Experimental: as §2

[13] = test system: Abutilon theophrasti (ABUTH, velvetleaf); test: Post-emergence herbicidal evaluation; conditions: 3 weeks after treatment
Experimental: as §2

[14] = test system: Ipomoea hederacea (IPOHE, morning glory); test: Post-emergence herbicidal evaluation; conditions: 3 weeks after treatment
Experimental: as §2

[15] = test system: Matricaria inodora (MATIN, mayweed); test: Post-emergence herbicidal evaluation; conditions: 3 weeks after treatment
Experimental: as §2

[16] = test system: Dolium multiflorum (LOLMU, ryegrass); test: Post-emergence herbicidal evaluation; conditions: rate 0.100 kg/ha, 3 weeks after treatment
Experimental: as §2

[17] = test system: Setaria viridis (SETVI, green foxtail); test: Post-emergence herbicidal evaluation; conditions: 3 weeks after treatment
Experimental: as §2

[18] = test system: Triticum aestivum (TRZAW, winter wheat); test: Pre-emergence herbicidal evaluation (crop); conditions: 3 weeks after treatment
From the text: as §1

Zea mays (ZEAMX, maize) = test: Pre-emergence herbicidal evaluation (crop); conditions: 3 weeks after treatment
From the text: as §1

[19] = test system: Glycine max (GLXMA, soyabeans); test: Pre-emergence herbicidal evaluation (crop); conditions: 3 weeks after treatment
From the text: as §1

Question: Which ECHCG rating ([1]; rate 0.025 kg/ha) does the source give for `Cc1cc(OCC=CSC(F)(F)F)nc(Oc2cc(C(F)(F)F)nn2C)c1` [Example 2, 2-(1-Methyl-3-trifluoromethylpyrazol-5-yloxy)-4-methyl-6-(3-trifluoromethylthioprop-2-enyloxy)pyridine] here?
Answer: The ECHCG rating was 7 (7 - Good herbicidal effect).

Question: And the ECHCG rating ([1]; rate 0.100 kg/ha)?
Answer: The ECHCG rating was 8 (8 - Approaching complete kill).

Question: What about the ECHCG rating ([1]; rate 0.400 kg/ha) of the same compound?
Answer: The ECHCG rating was 8 (8 - Approaching complete kill).

Question: And the ALOMY rating ([2]; rate 0.025 kg/ha)?
Answer: Its ALOMY rating is 8 (8 - Approaching complete kill).

Question: And the ALOMY rating ([2]; rate 0.100 kg/ha)?
Answer: The ALOMY rating was 8 (8 - Approaching complete kill).

Question: And the ALOMY rating ([2]; rate 0.400 kg/ha)?
Answer: Its ALOMY rating is 8 (8 - Approaching complete kill).

Question: And the GALAP rating ([3]; rate 0.025 kg/ha)?
Answer: The GALAP rating was 7 (7 - Good herbicidal effect).

Question: What about the GALAP rating ([3]; rate 0.400 kg/ha) of the same compound?
Answer: The GALAP rating was 8 (8 - Approaching complete kill).

Question: And the STEME rating ([4]; rate 0.025 kg/ha)?
Answer: Its STEME rating is 9 (9 - Complete kill).

Question: And the STEME rating ([4]; rate 0.100 kg/ha)?
Answer: The STEME rating was 9 (9 - Complete kill).

Question: And the STEME rating ([4]; rate 0.400 kg/ha)?
Answer: The STEME rating was 9 (9 - Complete kill).

Question: And the ABUTH rating ([5]; rate 0.025 kg/ha)?
Answer: The ABUTH rating was 3 (3 - Moderate effect).

Question: What about the ABUTH rating ([5]; rate 0.100 kg/ha) of the same compound?
Answer: Its ABUTH rating is 7 (7 - Good herbicidal effect).

Question: What about the ABUTH rating ([5]; rate 0.400 kg/ha) of the same compound?
Answer: The ABUTH rating was 8 (8 - Approaching complete kill).

Question: What about the IPOHE rating ([6]; rate 0.025 kg/ha) of the same compound?
Answer: Its IPOHE rating is 5 (5 - Definite injury).

Question: What about the IPOHE rating ([6]; rate 0.100 kg/ha) of the same compound?
Answer: Its IPOHE rating is 5 (5 - Definite injury).

Question: What about the IPOHE rating ([6]; rate 0.400 kg/ha) of the same compound?
Answer: The IPOHE rating was 8 (8 - Approaching complete kill).

Question: What about the MATIN rating ([7]; rate 0.025 kg/ha) of the same compound?
Answer: Its MATIN rating is 8 (8 - Approaching complete kill).

Question: And the MATIN rating ([7]; rate 0.100 kg/ha)?
Answer: Its MATIN rating is 8 (8 - Approaching complete kill).

Question: What about the MATIN rating ([7]; rate 0.400 kg/ha) of the same compound?
Answer: The MATIN rating was 9 (9 - Complete kill).

Question: What about the SETVI rating ([8]; rate 0.025 kg/ha) of the same compound?
Answer: Its SETVI rating is 9 (9 - Complete kill).

Question: What about the SETVI rating ([8]; rate 0.100 kg/ha) of the same compound?
Answer: Its SETVI rating is 9 (9 - Complete kill).

Question: What about the SETVI rating ([8]; rate 0.400 kg/ha) of the same compound?
Answer: Its SETVI rating is 9 (9 - Complete kill).

Question: What about the ECHCG rating ([9]; rate 0.025 kg/ha) of the same compound?
Answer: Its ECHCG rating is 8 (8 - Approaching complete kill).

Question: And the ECHCG rating ([9]; rate 0.100 kg/ha)?
Answer: The ECHCG rating was 8 (8 - Approaching complete kill).

Question: What about the ECHCG rating ([9]; rate 0.400 kg/ha) of the same compound?
Answer: Its ECHCG rating is 8 (8 - Approaching complete kill).

Question: What about the ALOMY rating ([10]; rate 0.025 kg/ha) of the same compound?
Answer: Its ALOMY rating is 7 (7 - Good herbicidal effect).

Question: What about the ALOMY rating ([10]; rate 0.100 kg/ha) of the same compound?
Answer: Its ALOMY rating is 7 (7 - Good herbicidal effect).

Question: What about the ALOMY rating ([10]; rate 0.400 kg/ha) of the same compound?
Answer: Its ALOMY rating is 7 (7 - Good herbicidal effect).

Question: What about the GALAP rating ([11]; rate 0.025 kg/ha) of the same compound?
Answer: Its GALAP rating is 6 (6 - Herbicidal effect).

Question: What about the GALAP rating ([11]; rate 0.100 kg/ha) of the same compound?
Answer: The GALAP rating was 7 (7 - Good herbicidal effect).

Question: What about the GALAP rating ([11]; rate 0.400 kg/ha) of the same compound?
Answer: Its GALAP rating is 7 (7 - Good herbicidal effect).

Question: And the STEME rating ([12]; rate 0.025 kg/ha)?
Answer: Its STEME rating is 4 (4 - Injury).

Question: And the STEME rating ([12]; rate 0.100 kg/ha)?
Answer: Its STEME rating is 5 (5 - Definite injury).

Question: What about the STEME rating ([12]; rate 0.400 kg/ha) of the same compound?
Answer: Its STEME rating is 5 (5 - Definite injury).

Question: And the ABUTH rating ([13]; rate 0.025 kg/ha)?
Answer: Its ABUTH rating is 6 (6 - Herbicidal effect).

Question: What about the ABUTH rating ([13]; rate 0.100 kg/ha) of the same compound?
Answer: Its ABUTH rating is 7 (7 - Good herbicidal effect).

Question: And the ABUTH rating ([13]; rate 0.400 kg/ha)?
Answer: The ABUTH rating was 7 (7 - Good herbicidal effect).

Question: What about the IPOHE rating ([14]; rate 0.025 kg/ha) of the same compound?
Answer: Its IPOHE rating is 8 (8 - Approaching complete kill).

Question: What about the IPOHE rating ([14]; rate 0.100 kg/ha) of the same compound?
Answer: The IPOHE rating was 9 (9 - Complete kill).

Question: What about the IPOHE rating ([14]; rate 0.400 kg/ha) of the same compound?
Answer: The IPOHE rating was 9 (9 - Complete kill).

Question: What about the MATIN rating ([15]; rate 0.025 kg/ha) of the same compound?
Answer: Its MATIN rating is 6 (6 - Herbicidal effect).

Question: And the MATIN rating ([15]; rate 0.100 kg/ha)?
Answer: Its MATIN rating is 6 (6 - Herbicidal effect).

Question: What about the MATIN rating ([15]; rate 0.400 kg/ha) of the same compound?
Answer: Its MATIN rating is 6 (6 - Herbicidal effect).

Question: What about the LOLMU rating [16] of the same compound?
Answer: Its LOLMU rating is 8 (8 - Approaching complete kill).

Question: And the SETVI rating ([17]; rate 0.025 kg/ha)?
Answer: Its SETVI rating is 7 (7 - Good herbicidal effect).

Question: What about the SETVI rating ([17]; rate 0.100 kg/ha) of the same compound?
Answer: The SETVI rating was 8 (8 - Approaching complete kill).

Question: And the SETVI rating ([17]; rate 0.400 kg/ha)?
Answer: Its SETVI rating is 8 (8 - Approaching complete kill).

Question: And the TRZAW rating ([18]; rate 0.025 kg/ha)?
Answer: The TRZAW rating was 2 (2 - Slight effect).

Question: What about the TRZAW rating ([18]; rate 0.100 kg/ha) of the same compound?
Answer: The TRZAW rating was 3 (3 - Moderate effect).

Question: What about the TRZAW rating ([18]; rate 0.400 kg/ha) of the same compound?
Answer: Its TRZAW rating is 5 (5 - Definite injury).

Question: What about the ZEAMX rating (Zea mays (ZEAMX, maize); rate 0.025 kg/ha) of the same compound?
Answer: The ZEAMX rating was 4 (4 - Injury).

Question: And the ZEAMX rating (Zea mays (ZEAMX, maize); rate 0.100 kg/ha)?
Answer: The ZEAMX rating was 5 (5 - Definite injury).

Question: And the ZEAMX rating (Zea mays (ZEAMX, maize); rate 0.400 kg/ha)?
Answer: The ZEAMX rating was 5 (5 - Definite injury).

Question: What about the GLXMA rating ([19]; rate 0.025 kg/ha) of the same compound?
Answer: The GLXMA rating was 0 (0 - No effect).

Question: And the GLXMA rating ([19]; rate 0.100 kg/ha)?
Answer: Its GLXMA rating is 2 (2 - Slight effect).

Question: What about the GLXMA rating ([19]; rate 0.400 kg/ha) of the same compound?
Answer: Its GLXMA rating is 4 (4 - Injury).
